Laboratory results from patent US9988348B1, “Synthesis and antimicrobial use of a trithiocarbonate derivative” (KING SAUD UNIVERSITY, priority 2017, dated 2018).

Key:
Test in all cases: disk diffusion assay, inhibition zone
Assay type in all cases: cell-based
[1] = tested on: Aspergillus fumigatus AUMC 8794; details: Aspergillus fumigatus, AUMC8794, A. fumigatus, read-out: Inhibition zone diameter of standard antimicrobial agents
Description: (§1) To evaluate antimicrobial activity of the compound 4, synthesized in our laboratory as novel anti-bacterial and anti-fungal agents, the inhibition zone diameter (mm) and the minimal inhibitory concentration were determined according to (Andrews 2001; Hudzicki 2009). The test carried out on several clinical microorganisms included Gram positive bacteria (Staphylococcus aureus ATCC and Streptococcus mutans ATCC 35668), Gram negative bacteria (Escherichia coli ATCC 25922, Salmonella typhimurium ATCC 14028 and Neisseria meningitides ATCC 1302); yeasts (Candid albicans ATCC 60193, Cryptococcus neoformans Wild strain and Candida parapsilosus ATCC 22019) and molds (Aspergillus fumigatus AUMC 8794, Penicillum chrysogenum AUMC 9476 and Fusarium sp.)
(§2) The clinical microorganisms were cultivated at least three times on suitable culture medium and incubating conditions before susceptibility test. The concentration of microbial inoculation suspensions in sterile sodium chloride solution (0.89%) were adjusted to 0.65 at 620 nm by spectrophotometer. […]
(§3) After that, the disks were dried at 25° C. under sterile conditions by safety biological cabinet. A Mueller-Hinton agar (MHA) (Scharlau Microbiogy, Spain) and a potato dextrose agar (PDA) (Scharlau, Spain) were used to perform antibacterial and antifungal test respectively. The media were prepared according to manufacturer's guidelines. To prepare one liter of MHA and one liter of PDA, 21 grams of MHA and 39 grams of PDA were dissolved in one liter of sterile distilled water, followed by sterilization at 121° C. for 15 minutes by an autoclave (HL-321, Taiwan). The sterilized media were poured in sterile plastic Petri dishes at 50° C. The plates were allowed to let the medium solidify at room temperature. 0.1 ml of microbial inoculation suspensions were spread on dried surface of medium and were kept at 25° C. for 5-10 minutes. The compound 4 and standard antimicrobial drugs discs (Table 1) were dispensed on the surface of inoculated media. The tested bacteria and fungi were incubated at 37±1° C. for 19-22 hours and at 25±1 for 48-72 hours respectively. After the incubation, the diameter of inhibition zone (millimeter) resulting from the biological activity of compound were recorded.

[2] = tested on: Candid albicans ATCC 60193; details: Candida albicans, ATCC60193, C. albicans, read-out: Inhibition zone diameter of standard antimicrobial agents
Description: as §1, §2, §3

[3] = tested on: Candida parapsilosus ATCC 22019
Description: as §1, §2, §3

[4] = tested on: Cryptococcus neoformans Wild strain
Description: as §1, §2, §3

Fusarium sp. = details: read-out: Inhibition zone diameter of standard antimicrobial agents
Description: as §1, §2, §3

[5] = tested on: Penicillum chrysogenum AUMC 9476; details: read-out: Inhibition zone diameter of standard antimicrobial agents
Description: as §1, §2, §3

[6] = tested on: Neisseria meningitides ATCC 1302; details: Neisseria, ATCC1302, N. meningitides, read-out: Inhibition zone diameter of standard antimicrobial agents; for zone of inhibition at 10 µg/disc: 10 μg/disk
[7] = tested on: Escherichia coli ATCC 25922; details: Escherichia coli, ATCC25922, E. coli, read-out: Inhibition zone diameter of standard antimicrobial agents; for zone of inhibition at 10 µg/disc: 10 μg/disk
Description: as §1, §2, §3

[8] = tested on: Salmonella typhimurium ATCC 14028; details: Salmonella enterica, Sa. typhimurium, read-out: Inhibition zone diameter of standard antimicrobial agents; for zone of inhibition at 10 µg/disc: 10 μg/disk
Description: as §1, §2, §3

[9] = tested on: Staphylococcus aureus ATCC; details: Staphylococcus aureus, S. aureus, read-out: Inhibition zone diameter of standard antimicrobial agents; for zone of inhibition at 10 µg/disc: 10 μg/disk
Description: as §1, §2, §3

[10] = tested on: Streptococcus mutans ATCC 35668; details: Streptococcus mutans, ATCC35668, S. mutans, read-out: Inhibition zone diameter of standard antimicrobial agents; for zone of inhibition at 10 µg/disc: 10 μg/disk
Description: as §1, §2, §3

With `CC[C@H](C)C[C@H](C)CCCCCCCCC(=O)N[C@H]1C[C@@H](O)[C@@H](NCCN)NC(=O)[C@@H]2[C@@H](O)CCN2C(=O)[C@H]([C@H](O)CCN)NC(=O)[C@H]([C@H](O)[C@@H](O)c2ccc(O)cc2)NC(=O)[C@@H]2C[C@@H](O)CN2C(=O)[C@H]([C@@H](C)O)NC1=O` [Caspofungin] the zone of inhibition at 10 µg/disc ([1]; 10 μg/disk) was 20 mm, the zone of inhibition at 10 µg/disc ([2]; 10 μg/disk) was 20 mm and the “susceptibility of the strain to the standard drug, in words” value (shortened to “susceptibility of the strain”) ([3]; C. parasilosus) was “resistant”. The zone of inhibition at 10 µg/disc ([3]; Candida, ATCC22019, C. parasilosus, 10 μg/disk, read-out: Inhibition zone diameter of standard antimicrobial agents) was 0 mm, the “susceptibility of the strain” value ([4]; Cr. neoformans strain used in this study) was “resistance” and the zone of inhibition at 10 µg/disc ([4]; Cryptococcus neoformans, C. neoformasn, 10 μg/disk, read-out: Inhibition zone diameter of standard antimicrobial agents) was 0 mm. It also gave a zone of inhibition at 10 µg/disc (Fusarium sp.; Fusarium sp., 10 μg/disk) of 0 mm and a zone of inhibition at 10 µg/disc ([5]; P. chrysoginum, 10 μg/disk) of 0 mm.
Molecule `O=C(N[C@H](CO)[C@H](O)c1ccc([N+](=O)[O-])cc1)C(Cl)Cl` [Chloramphenicol] has a zone of inhibition at 30 µg/disc ([6]; 30 μg/disk) of 34 mm, a zone of inhibition at 30 µg/disc ([7]; 30 μg/disk) of 40 mm and a zone of inhibition at 30 µg/disc ([8]; 30 μg/disk) of 30 mm. For the same molecule, the zone of inhibition at 30 µg/disc ([9]; 30 μg/disk) was 30 mm and the zone of inhibition at 30 µg/disc ([10]; 30 μg/disk) was 20 mm.
In the case of `C[C@@H]1C[C@@H]([C@H](O)CC2CC(=O)NC(=O)C2)C(=O)[C@@H](C)C1` [Cycloheximide], the zone of inhibition at 30 µg/disc ([1]; 30 μg/disk) is reported as 22 mm, the zone of inhibition at 30 µg/disc ([2]; 30 μg/disk) is reported as 0 mm and the “susceptibility of the strain” value ([3]; C. parasilosus) is reported as “resistant”. It also gave a zone of inhibition at 30 µg/disc ([3]; Candida, ATCC22019, read-out: Inhibition zone diameter of standard antimicrobial agents) of 0 mm, a zone of inhibition at 30 µg/disc ([4]; Cryptococcus neoformans, read-out: Inhibition zone diameter of standard antimicrobial agents) of 32 mm and a zone of inhibition at 30 µg/disc (Fusarium sp.; Fusarium) of 30 mm. It also gave a zone of inhibition at 30 µg/disc [5] of 23 mm.
`CC(=O)O[C@H]1C[C@@]2(C)[C@@H](C[C@@H](O)[C@H]3[C@@]4(C)CC[C@@H](O)[C@@H](C)[C@@H]4CC[C@@]32C)/C1=C(\CCC=C(C)C)C(=O)O` [Fusidic acid] was tested, and the zone of inhibition at 10 µg/disc [6] was 20 mm, the zone of inhibition at 10 µg/disc [7] was 0 mm and the zone of inhibition at 10 µg/disc [8] was 0 mm. It also gave a zone of inhibition at 10 µg/disc [9] of 23 mm and a zone of inhibition at 10 µg/disc [10] of 10 mm.
For `NC[C@H]1O[C@H](O[C@H]2[C@H](O)[C@@H](O[C@H]3O[C@H](CO)[C@@H](O)[C@H](N)[C@H]3O)[C@H](N)C[C@@H]2N)[C@H](N)C[C@@H]1O` [Tobramycin], the zone of inhibition at 10 µg/disc [6] was 21 mm, the zone of inhibition at 10 µg/disc [7] was 20 mm and the zone of inhibition at 10 µg/disc [8] was 14 mm. It also gave a zone of inhibition at 10 µg/disc [9] of 14 mm and a zone of inhibition at 10 µg/disc [10] of 35 mm.
